Experiment [1] deals with human HDAC1 (Homo sapiens, UniProt Q13547). Description: Human HDAC enzyme inhibitor Fluor-De-Lys assay, HDAC1.
Experimental: (§1) Human HDAC Enzyme Inhibitor Fluor-De-Lys Assay Materials
(§2) The histone deacetylase activities of HDAC1, HDAC2, HDAC3, HDAC6, and HDAC8 were measured in modified FLUOR DE LYS assays in 384-well format. In this assay, HDAC enzymes are initially incubated with an F-acetyl (or -trifluoroacetyl)-L-lysine-containing substrate with a C-terminal amide having aminomethylcoumarin as the amine component. HDACs cleave the F-acetyl group, rendering the resulting product susceptible to AMC cleavage by trypsin. The released AMC is then detected by its fluorescence.
(§3) The HDAC3/SMRT assay employed buffer B, consisting of 20 mM HEPES, pH 8.0, 1 mM MgCl2, 50 mM NaCl, 2.7 mM KCl, 0.05% BSA, 0.005% Tween 20, and 10 μM IP4. […] The HDAC8 assay employed buffer D, consisting of 20 mM HEPES, pH 8.0, 1 mM MgCl2, 100 mM NaCl, 20 mM KCl, 0.1% n-octyl-β-D-glucoside (Anatrace) and 0.05% BSA. All steps were performed at room temperature (23° C.). The assay was performed by pre-incubating serial dilutions of test compounds with the target HDAC prior to initiation with substrate. Each compound was titrated in a 10-point dose response, using a 1:3 fold dilution scheme, with 0.15 ul of solution added by ECHO555 to the plate, followed by the addition of 20 μl of the appropriate HDAC isoform diluted in appropriate assay buffer. […] Final conditions used for each assay were: 1. […] The reactions were stopped and developed by addition of 30 ul of HDAC developer solution containing a saturating level of HDAC inhibitor as follows: 1.
Experiment [2] deals with human HDAC2 (Homo sapiens, UniProt Q92769). Description: Human HDAC enzyme inhibitor Fluor-De-Lys assay, HDAC2.
Experimental: as §1, §2, §3
Experiment [3] addresses human HDAC3/SMRT heterodimer (Homo sapiens, UniProt O15379). Put plainly: Human HDAC enzyme inhibitor Fluor-De-Lys assay, HDAC3/SMRT.
Experimental: as §1, §2, §3
Experiment [4] has as its target T1, HDAC6 (Homo sapiens, UniProt Q9UBN7).
T1 sequence (Q9UBN7 1-1215): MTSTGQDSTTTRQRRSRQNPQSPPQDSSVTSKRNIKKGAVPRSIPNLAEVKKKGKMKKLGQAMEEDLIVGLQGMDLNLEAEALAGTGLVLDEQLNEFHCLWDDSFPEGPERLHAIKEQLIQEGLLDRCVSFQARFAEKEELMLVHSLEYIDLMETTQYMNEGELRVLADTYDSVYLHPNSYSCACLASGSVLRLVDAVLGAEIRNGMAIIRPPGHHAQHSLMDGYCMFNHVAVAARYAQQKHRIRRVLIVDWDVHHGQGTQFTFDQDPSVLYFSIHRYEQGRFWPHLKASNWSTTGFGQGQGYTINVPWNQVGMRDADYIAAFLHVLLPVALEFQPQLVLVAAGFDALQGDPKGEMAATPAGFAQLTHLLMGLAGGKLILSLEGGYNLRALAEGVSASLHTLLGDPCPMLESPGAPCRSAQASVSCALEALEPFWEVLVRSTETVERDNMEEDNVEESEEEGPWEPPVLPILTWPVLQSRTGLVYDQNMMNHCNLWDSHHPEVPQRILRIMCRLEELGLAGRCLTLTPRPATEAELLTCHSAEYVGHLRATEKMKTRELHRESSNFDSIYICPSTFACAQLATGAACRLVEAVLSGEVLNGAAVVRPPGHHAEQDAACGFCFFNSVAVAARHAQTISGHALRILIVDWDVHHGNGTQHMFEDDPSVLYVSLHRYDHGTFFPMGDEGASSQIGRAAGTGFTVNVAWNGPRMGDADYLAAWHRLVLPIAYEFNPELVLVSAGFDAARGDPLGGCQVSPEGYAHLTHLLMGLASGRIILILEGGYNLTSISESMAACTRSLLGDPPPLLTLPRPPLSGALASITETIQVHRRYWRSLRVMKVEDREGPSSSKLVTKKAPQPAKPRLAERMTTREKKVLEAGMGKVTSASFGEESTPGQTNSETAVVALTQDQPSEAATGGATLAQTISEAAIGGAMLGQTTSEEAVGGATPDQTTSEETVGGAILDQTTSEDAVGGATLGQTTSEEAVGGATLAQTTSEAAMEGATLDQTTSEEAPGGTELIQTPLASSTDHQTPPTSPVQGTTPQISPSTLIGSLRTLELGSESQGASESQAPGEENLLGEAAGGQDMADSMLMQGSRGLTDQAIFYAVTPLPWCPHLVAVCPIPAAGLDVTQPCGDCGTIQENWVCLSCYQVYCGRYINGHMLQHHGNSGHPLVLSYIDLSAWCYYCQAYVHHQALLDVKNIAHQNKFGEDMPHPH
Put plainly: Human HDAC enzyme inhibitor Fluor-De-Lys assay, HDAC6. It counts as biochemical. The conditions noted are these: 1.3 nM total enzyme, 2.5 μM substrate BML-KI104, 3 hours pre-incubation, 60 min reaction, 23° C., 4-parameter fit.
Text: as §1
Recombinant human HDAC8 (BML-SE145-0100) and HDAC10 (BML-SE559-0050) enzymes, HDAC substrates BML-KI104 and BML-K1178, and HDAC developer solutions BML-KI105 and BML-KI176 were purchased from Enzo Life Sciences. […] HDAC inhibitor suberoylanilide hydroxamic acid (SAHA) was obtained from Indofine and trichostatin A (TSA) was obtained from Sigma-Aldrich.
as §2, §3

Molecules are shown by their SMILES.

Sequence of human HDAC1 (Q13547 whole entry): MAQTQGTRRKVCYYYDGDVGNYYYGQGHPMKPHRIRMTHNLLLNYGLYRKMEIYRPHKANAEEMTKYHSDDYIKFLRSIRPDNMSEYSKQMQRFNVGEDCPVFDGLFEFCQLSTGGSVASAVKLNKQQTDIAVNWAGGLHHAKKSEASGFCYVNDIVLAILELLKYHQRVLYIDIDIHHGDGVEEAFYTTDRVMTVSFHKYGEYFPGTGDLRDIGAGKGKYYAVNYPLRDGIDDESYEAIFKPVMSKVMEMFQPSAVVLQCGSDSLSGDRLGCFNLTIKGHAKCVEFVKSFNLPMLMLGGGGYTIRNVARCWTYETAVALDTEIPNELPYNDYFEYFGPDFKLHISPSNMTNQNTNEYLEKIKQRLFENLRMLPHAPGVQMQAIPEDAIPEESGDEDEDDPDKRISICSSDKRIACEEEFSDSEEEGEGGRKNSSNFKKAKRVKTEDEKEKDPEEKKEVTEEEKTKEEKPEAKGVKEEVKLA
Sequence of human HDAC2 (Q92769 whole entry): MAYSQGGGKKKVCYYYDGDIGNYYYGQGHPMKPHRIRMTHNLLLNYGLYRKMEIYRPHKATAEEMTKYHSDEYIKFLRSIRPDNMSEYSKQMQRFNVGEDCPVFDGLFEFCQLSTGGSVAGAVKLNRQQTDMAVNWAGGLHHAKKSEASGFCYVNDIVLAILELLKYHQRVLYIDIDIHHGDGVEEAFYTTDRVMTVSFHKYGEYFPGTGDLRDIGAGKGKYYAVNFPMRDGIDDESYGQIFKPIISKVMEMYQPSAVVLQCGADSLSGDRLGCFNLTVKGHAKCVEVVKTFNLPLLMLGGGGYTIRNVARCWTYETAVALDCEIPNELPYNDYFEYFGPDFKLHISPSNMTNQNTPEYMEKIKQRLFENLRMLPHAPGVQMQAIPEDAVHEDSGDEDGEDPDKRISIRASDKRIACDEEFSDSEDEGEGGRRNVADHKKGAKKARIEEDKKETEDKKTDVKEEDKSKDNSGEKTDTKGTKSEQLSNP
Sequence of human HDAC3/SMRT heterodimer (O15379 whole entry): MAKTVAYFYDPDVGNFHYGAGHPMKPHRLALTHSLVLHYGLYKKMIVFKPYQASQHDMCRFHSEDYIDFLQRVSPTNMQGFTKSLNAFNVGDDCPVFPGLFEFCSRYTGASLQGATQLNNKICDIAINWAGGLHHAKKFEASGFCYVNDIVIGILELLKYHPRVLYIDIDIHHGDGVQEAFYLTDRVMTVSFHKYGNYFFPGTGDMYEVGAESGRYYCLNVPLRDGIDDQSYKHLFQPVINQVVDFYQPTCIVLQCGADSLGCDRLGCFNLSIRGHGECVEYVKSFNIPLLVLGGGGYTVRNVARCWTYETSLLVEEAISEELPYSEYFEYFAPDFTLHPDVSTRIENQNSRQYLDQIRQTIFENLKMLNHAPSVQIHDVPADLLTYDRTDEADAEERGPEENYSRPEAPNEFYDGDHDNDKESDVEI
Sequence of human HDAC3/SMRT heterodimer (Q9Y618 1-899 partner limits assumed): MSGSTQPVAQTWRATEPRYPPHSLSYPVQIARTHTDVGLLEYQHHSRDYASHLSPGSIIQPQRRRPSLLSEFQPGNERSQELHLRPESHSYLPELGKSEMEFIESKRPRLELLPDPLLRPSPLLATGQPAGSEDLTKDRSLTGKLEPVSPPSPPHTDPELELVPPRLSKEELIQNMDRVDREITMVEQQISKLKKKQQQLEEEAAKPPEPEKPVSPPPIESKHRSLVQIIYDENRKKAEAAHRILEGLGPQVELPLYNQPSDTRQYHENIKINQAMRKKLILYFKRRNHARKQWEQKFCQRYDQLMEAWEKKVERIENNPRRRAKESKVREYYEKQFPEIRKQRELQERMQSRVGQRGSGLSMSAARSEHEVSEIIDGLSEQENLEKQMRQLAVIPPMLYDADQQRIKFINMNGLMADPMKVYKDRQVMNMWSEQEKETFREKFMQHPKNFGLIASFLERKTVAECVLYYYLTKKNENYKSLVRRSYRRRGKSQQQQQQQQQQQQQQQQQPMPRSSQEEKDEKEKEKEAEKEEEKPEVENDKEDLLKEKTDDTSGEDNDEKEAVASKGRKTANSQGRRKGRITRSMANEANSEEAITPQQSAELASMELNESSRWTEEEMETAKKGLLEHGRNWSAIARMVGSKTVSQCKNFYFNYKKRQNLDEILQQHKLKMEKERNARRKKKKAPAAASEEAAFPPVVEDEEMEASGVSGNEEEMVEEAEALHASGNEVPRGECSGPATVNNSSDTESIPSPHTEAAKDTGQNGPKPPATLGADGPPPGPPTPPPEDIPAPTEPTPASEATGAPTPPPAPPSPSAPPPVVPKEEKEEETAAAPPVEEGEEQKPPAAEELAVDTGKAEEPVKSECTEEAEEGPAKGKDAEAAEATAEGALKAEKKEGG

Turning to `COc1nc2ccccc2cc1-c1cnc(C2(CCCCNC(=O)c3ccc(F)cc3SC)CCC(=O)N2)[nH]1` (centres unmarked) [Example 63], the results for the IC50 in experiment [1], in experiment [2] and in experiment [3] were not below 45 µM, not below 45 µM and 0.958 µM, respectively.

Consider `CCN1CCC2(CC1)C[C@@H]2C(=O)N[C@@H](CCCCNC(=O)c1ccccc1SC)c1ncc(-c2cc3ccccc3nc2OC)[nH]1` [Example 60, (S)-6-ethyl-N-((S)-1-(5-(2-methoxyquinolin-3-yl)-1H-imidazol-2-yl)-5-(2-(methylthio)benzamido)pentyl)-6-azaspiro[2.5]octane-1-carboxamide], for which the IC50 in experiment [4] was determined as 11.6 µM.

In experiment [4], `CSc1cc(F)ccc1C(=O)NCCCC[C@H](NC(=O)c1cncs1)c1ncc(-c2ccc3ccccc3c2)[nH]1` [Example 5, (S)-N-(5-(4-fluoro-2-(methylthio)benzamido)-1-(5-(naphthalen-2-yl)-1H-imidazol-2-yl)pentyl)thiazole-5-carboxamide] yielded an IC50 not below 45 µM.

Turning to `COc1ccc2[nH]c(C)c(C(C)C(=O)N[C@@H](CCCCNC(=O)c3ccccc3SC)c3ncc(-c4cc5ccccc5nc4OC)[nH]3)c2c1` (stereo partly drawn) [Example 58, N-((5S)-5-(2-(5-methoxy-2-methyl-1H-indol-3-yl)propanamido)-5-(5-(2-methoxyquinolin-3-yl)-1H-imidazol-2-yl)pentyl)-2-(methylthio)benzamide], the IC50 in experiment [1] is not below 45 µM; in experiment [2], not below 45 µM; in experiment [3], 0.379 µM.

For the compound `Nc1ccc(F)c(F)c1C(=O)NCCCC[C@H](NC(=O)c1cncs1)c1ncc(-c2ccc3ccccc3c2)[nH]1` [Example 9, (S)-N-(5-(6-amino-2,3-difluorobenzamido)-1-(5-(naphthalen-2-yl)-1H-imidazol-2-yl)pntyl)thiazole-5-carboxamide], the IC50 in experiment [1] is 7.88 µM; in experiment [2] it was 15.7 µM; in experiment [4], not below 45 µM; in experiment [3], 0.1 µM.

In the case of `COc1nc2ccccc2cc1-c1cnc([C@H](CCCCNC(=O)c2nc(C)ccc2O)NC(=O)c2cncs2)[nH]1` [Example 61, (S)-N-(5-(3-hydroxy-6-methylpicolinamido)-1-(5-(2-methoxyquinolin-3-yl)-1H-imidazol-2-yl)pentyl)thiazole-5-carboxamide], the IC50 in experiment [4] was not below 45 µM.

On to `Nc1cc(F)c(F)cc1C(=O)NCCCC[C@H](NC(=O)c1cncs1)c1ncc(-c2ccc3ccccc3c2)[nH]1` [Example 27, (S)-N-(5-(2-amino-4,5-difluorobenzamido)-1-(5-(naphthalen-2-yl)-1H-imidazol-2-yl)pentyl)thiazole-5-carboxamide], for which the IC50 in experiment [4] is not below 45 µM.

Regarding `CSc1cc([N+](=O)[O-])ccc1C(=O)NCCCC[C@H](NC(=O)c1cncs1)c1ncc(-c2ccc3ccccc3c2)[nH]1` [Example 43, (S)-N-(5-(2-(methylthio)-4-nitrobenzamido)-1-(5-(naphthalen-2-yl)-1H-imidazol-2-yl)pentyl)thiazole-5-carboxamide], the figures for the IC50 in experiment [1], in experiment [2] and in experiment [3] were not below 45 µM, not below 45 µM and 7 µM, respectively.

Consider `COc1nc2ccccc2cc1-c1cnc(C2(CCCCNC(=O)c3ccccc3SC)CCC(=O)N2)[nH]1` (centres unmarked) [Example 62, N-(4-(2-(5-(2-methoxyquinolin-3-yl)-1H-imidazol-2-yl)-5-oxopyrrolidin-2-yl)butyl)-2-(methylthio)benzamide], for which the IC50 in experiment [1] was not below 45 µM; in experiment [2] it was not below 45 µM; in experiment [3], 0.671 µM.

Values taken from patent publication US12281109B2 (Merck Sharp & Dohme LLC, priority 2019, dated 2025).
